Results: patent US4618612A (Medosan Industrie Biochimiche Riunite S.p.A., priority 1983, dated 1986)
Where two headings read alike, the source gives them in different places.

Experiments:
gastric mucosa = experiment: Gastric tolerance (ulcerogenic activity); format: in vivo, male Wistar rats; conditions: 4 days; for Mean Severity: scale 0-5; for Gastric Damage index: vehicle 8
Protocol: This was studied by conducting tests of ulcerogenic activity in male Wistar rats, weighing 180 g on the average, in groups of 10 animals each. Three doses of each substance were given, and one group of animals was treated with vehicle only in a volume of 10 ml/kg bodyweight. Each dose was given orally for four consecutive days; on the fifth day, the rats were killed and autopsied. The ulcerogenic effect was assessed according to the following scale:
(1) each hemorrhage point ≥1 mm was evaluated as 1 lesion
(2) hemorrhage points smaller than 1 mm were counted as follows:
(b) from 1 to 19:2 lesions
(c) from 1 to 29:3 lesions
(2) gastric mucosa irritation: 1
(3) hemorrahge points <1 mm: 2
(4) hemorrhage points between 1 and 3 mm: 3
(5) hemorrhage points >3 mm: 4
This scale was used to calculate the following gastric damage index: [formula]

[1] = system: human platelet aggregation (PRP); experiment: Human platelet aggregation in vitro induced by ADP, adrenalin, collagen or arachidonate; format: cell-based; conditions: Homo sapiens
Protocol: Blood samples (20 ml) were obtained by venal puncture of the antecubital fossa using plastic syringes containing trisodium citrate as anticoagulant (final concentration 0.19% w/v). Platelet rich plasma (PRP) was harvested after slow centrifugation at 170 g for 12 min. and 0.2 ml aliquots were dispensed into plastic cuvettes and stored at room temperature throughout the experiment.
Aliquots of 0.2 ml PRP from each sample were treated with ADP, adrenalin, collagen or arachidonate, until the threshold concentrations of these aggregating agents had been reached. The threshold concentration is defined as the minimum whcih will produce irreversible aggregation. Once established, the threshold concentration was used to challenge test samples of each of the 2 test compounds or vehicle (DMSO) which had been incubated for 1 min. at 37 C. in the holding cell of the agregometer, prior to addition of the aggregating agent.
This was reported as the final concentration in the PRP after addition of 2.5-10 ul of test substance.

Solubility = format: physicochemical; conditions: common organic solvents
[2] = system: rat platelet-rich plasma (ADP-induced platelet aggregation); experiment: Anti-platelet aggregation activity in vitro (Born's method), rat platelet-rich plasma, ADP-induced; format: cell-based
Protocol: Preparations (A), (B), (C), (D), (E) and (F) were administered "in vivo" orally and/or parenterally in 0.5% carboxymethylcellulose suspensions in physiological saline at neutral pH. When tested "in vitro", they were finely dispersed in neutral pH physiological saline.
This was studied "in vitro" following Born's method (Born G. W. R., Nature, 194, 937 (1962)) and inducing platelet aggregation with ADP.
Platelet-rich plasma was obtained by centrifugation for 10 minutes at 2,000 rpm of 9 parts rat blood to 1 part 3.13% sodium citrate solution. In performing the aggregation test, 0.2 ml of platelet rich plasm was mixed with a 0.9% NaCl solution to which the test substance was added to a final volume of 0.6 ml; the resulting mixture was incubated at 27° C. for 3 minutes. After inducement with ADP, aggregation was measured continuously with an Elvi 840 Aggregometer (Elvi Logos-Milan) to follow its course. The anti-aggregant effects were determined from the difference in the light transmission of the sample with respect to an ADP control.
Table I reports the platelet aggregation inhibition using different doses of the test compounds at a constant ADP concentration.

in vivo [3] = conditions: mouse, mice
in vivo [4] = conditions: rat, rats
carragenin-induced edema = experiment: Carragenin-induced edema test (Winter); format: in vivo, rat
Protocol: This effect was measured with an experimental model reproducing acute inflammation in rats: the carragenin-induced edema test according to C.

[5] = ADP 2 μmol/l, dose 1 V/ml (Table II)
[6] = ADP 5 μmol/l, dose 1 V/ml (Table II)
[7] = ADP 7.08 μmol/l, dose 1 /ml (Table I)
[8] = ADP 7.08 μmol/l, dose 2,5 /ml (Table I)
[9] = ADP 7.08 μmol/l, dose 5 /ml (Table I)

In the case of `Cc1ccc(C(=O)c2ccc(CC(=O)OCCn3cnc4c3c(=O)n(C)c(=O)n4C)n2C)cc1` [(A), 1-Methyl-5-p-methylbenzoylpyrrol-2-acetate of 7-(2-oxyethyl)theophylline], the “% incidence 10” value (gastric mucosa; 50 mg/kg oral) is reported as 6 %/10, the “Gastric Damage index, second figure (after +; difference from vehicle)” value (gastric mucosa; 50 mg/kg oral) is reported as 1 and the “Mean No. lesions” value (gastric mucosa; 50 mg/kg oral) is reported as 1. For the same compound, the “Mean Severity” value (gastric mucosa; 50 mg/kg oral) was 2, the “Gastric Damage index” value (gastric mucosa; 50 mg/kg oral) was 9 and the “% incidence 10” value (gastric mucosa; 100 mg/kg oral) was 8 %/10. The “Gastric Damage index, second figure (after +; difference from vehicle)” value (gastric mucosa; 100 mg/kg oral) was 4, the “Mean No. lesions” value (gastric mucosa; 100 mg/kg oral) was 2 and the “Mean Severity” value (gastric mucosa; 100 mg/kg oral) was 2. For the same compound, the “Gastric Damage index” value (gastric mucosa; 100 mg/kg oral) was 12, the “% incidence 10” value (gastric mucosa; 200 mg/kg oral) was 8 %/10 and the “Gastric Damage index, second figure (after +; difference from vehicle)” value (gastric mucosa; 200 mg/kg oral) was 6. For the same compound, the “Mean No. lesions” value (gastric mucosa; 200 mg/kg oral) was 3, the “Mean Severity” value (gastric mucosa; 200 mg/kg oral) was 3 and the “Gastric Damage index” value (gastric mucosa; 200 mg/kg oral) was 14. For the same compound, the minimal effective concentration ([1]; ATH-8, 1 min, ADP, volunteer 3, read-out: Minimum Effective Concentration (Final in PRP)) was 100 µM, the minimal effective concentration ([1]; ATH-8, 1 min, Adrenalin, volunteer 3, read-out: Minimum Effective Concentration (Final in PRP)) was 10 µM and the minimal effective concentration ([1]; ATH-8, 1 min, Arachidonate, volunteer 3, read-out: Minimum Effective Concentration (Final in PRP)) was 250 µM. It also gave a minimal effective concentration ([1]; ATH-8, 1 min, Collagen, volunteer 3, read-out: Minimum Effective Concentration (Final in PRP)) of 700 µM, a minimal effective concentration ([1]; Platelet, 1 min, ADP, volunteer 1, read-out: Minimum Effective Concentration (Final in PRP)) of 10 µM and a minimal effective concentration ([1]; Platelet, 1 min, ADP, volunteer 2 (donor gamma), read-out: Minimum Effective Concentration (Final in PRP)) of 10 µM. The minimal effective concentration ([1]; Platelet, 1 min, Adrenalin, range over 3 volunteers, read-out: Minimum Effective Concentration Range) was 10 µM, the minimal effective concentration ([1]; Platelet, 1 min, Adrenalin, volunteer 1, read-out: Minimum Effective Concentration (Final in PRP)) was 10 µM and the minimal effective concentration ([1]; Platelet, 1 min, Adrenalin, volunteer 2 (donor gamma), read-out: Minimum Effective Concentration (Final in PRP)) was 10 µM. For the same compound, the minimal effective concentration ([1]; Platelet, 1 min, Arachidonate, volunteer 1, read-out: Minimum Effective Concentration (Final in PRP)) was 100 µM, the minimal effective concentration ([1]; Platelet, 1 min, Arachidonate, volunteer 2 (donor gamma), read-out: Minimum Effective Concentration (Final in PRP)) was 10 µM and the minimal effective concentration ([1]; Platelet, 1 min, Collagen, volunteer 1, read-out: Minimum Effective Concentration (Final in PRP)) was 100 µM. The minimal effective concentration ([1]; Platelet, 1 min, Collagen, volunteer 2 (donor gamma), read-out: Minimum Effective Concentration (Final in PRP)) was 550 µM, the Solubility (Solubility) was “Soluble in common organic solvents” and the “% Inhibition” value [2, 5] was 42%. The “% Inhibition” value [2, 6] was 30%, the “% Inhibition” value [2, 7] was 25% and the “% Inhibition” value [2, 8] was 100%. For the same compound, the “% Inhibition” value [2, 9] was 100%, the LD50 (in vivo [3]; ip, I.P.) was 950 mg/kg and the LD50 (in vivo [3]; po, OS) was 1270 mg/kg. The LD50 (in vivo [4]; ip, I.P.) was 800 mg/kg, the LD50 (in vivo [4]; po, OS) was 1150 mg/kg and the “% Edema Inhibition” value (carragenin-induced edema; I.P., 10 mg/kg, 3 h) was 35,0%. The “% Edema Inhibition” value (carragenin-induced edema; I.P., 10 mg/kg, 6 h) was 26,0%, the “% Edema Inhibition” value (carragenin-induced edema; I.P., 10 mg/kg, 24 h) was 0,0% and the “% Edema Inhibition” value (carragenin-induced edema; I.P., 50 mg/kg, 3 h) was 54,0%. For the same compound, the “% Edema Inhibition” value (carragenin-induced edema; I.P., 50 mg/kg, 6 h) was 40,0%, the “% Edema Inhibition” value (carragenin-induced edema; I.P., 50 mg/kg, 24 h) was 0,0% and the “% Edema Inhibition” value (carragenin-induced edema; I.P., 100 mg/kg, 3 h) was 65,0%. For the same compound, the “% Edema Inhibition” value (carragenin-induced edema; I.P., 100 mg/kg, 6 h) was 56,1%, the “% Edema Inhibition” value (carragenin-induced edema; I.P., 100 mg/kg, 24 h) was 0,0% and the “% Edema Inhibition” value (carragenin-induced edema; OS, 10 mg/kg, 3 h) was 34,6%. For the same compound, the “% Edema Inhibition” value (carragenin-induced edema; OS, 10 mg/kg, 6 h) was 22,2%, the “% Edema Inhibition” value (carragenin-induced edema; OS, 10 mg/kg, 24 h) was 0,0% and the “% Edema Inhibition” value (carragenin-induced edema; OS, 50 mg/kg, 3 h) was 52,0%. For the same compound, the “% Edema Inhibition” value (carragenin-induced edema; OS, 50 mg/kg, 6 h) was 41,1%, the “% Edema Inhibition” value (carragenin-induced edema; OS, 50 mg/kg, 24 h) was 0,0% and the “% Edema Inhibition” value (carragenin-induced edema; OS, 100 mg/kg, 3 h) was 62,0%. For the same compound, the “% Edema Inhibition” value (carragenin-induced edema; OS, 100 mg/kg, 6 h) was 57,3% and the “% Edema Inhibition” value (carragenin-induced edema; OS, 100 mg/kg, 24 h) was 10,0%.
With `Cc1cc(CC(=O)OCCn2cnc3c2c(=O)n(C)c(=O)n3C)n(C)c1C(=O)c1ccc(Cl)cc1` [(B), 1,4-Dimethyl-5-p-chlorobenzoylpyrrol-2-acetate of 7-(2-oxyethyl)theophylline] the “% incidence 10” value (gastric mucosa; 5 mg/kg oral) was 8 %/10, the “Gastric Damage index, second figure (after +; difference from vehicle)” value (gastric mucosa; 5 mg/kg oral) was 5 and the “Mean No. lesions” value (gastric mucosa; 5 mg/kg oral) was 2,5. For the same compound, the “Mean Severity” value (gastric mucosa; 5 mg/kg oral) was 2,5, the “Gastric Damage index” value (gastric mucosa; 5 mg/kg oral) was 13 and the “% incidence 10” value (gastric mucosa; 10 mg/kg oral) was 9 %/10. For the same compound, the “Gastric Damage index, second figure (after +; difference from vehicle)” value (gastric mucosa; 10 mg/kg oral) was 8, the “Mean No. lesions” value (gastric mucosa; 10 mg/kg oral) was 3 and the “Mean Severity” value (gastric mucosa; 10 mg/kg oral) was 4. The “Gastric Damage index” value (gastric mucosa; 10 mg/kg oral) was 16, the “% incidence 10” value (gastric mucosa; 2,5 mg/kg oral) was 7 %/10 and the “Gastric Damage index, second figure (after +; difference from vehicle)” value (gastric mucosa; 2,5 mg/kg oral) was 2. The “Mean No. lesions” value (gastric mucosa; 2,5 mg/kg oral) was 1, the “Mean Severity” value (gastric mucosa; 2,5 mg/kg oral) was 2 and the “Gastric Damage index” value (gastric mucosa; 2,5 mg/kg oral) was 10. For the same compound, the Solubility (Solubility) was “Soluble in common organic solvents”, the “% Inhibition” value [2, 5] was 31% and the “% Inhibition” value [2, 6] was 25%. For the same compound, the “% Inhibition” value [2, 7] was 20%, the “% Inhibition” value [2, 8] was 70% and the “% Inhibition” value [2, 9] was 90%. The LD50 (in vivo [3]; ip, I.P.) was 140 mg/kg, the LD50 (in vivo [3]; po, OS) was 160 mg/kg and the LD50 (in vivo [4]; ip, I.P.) was 100 mg/kg. The LD50 (in vivo [4]; po, OS) was 150 mg/kg, the “% Edema Inhibition” value (carragenin-induced edema; I.P., 5 mg/kg, 3 h) was 65,2% and the “% Edema Inhibition” value (carragenin-induced edema; I.P., 5 mg/kg, 6 h) was 60,5%. For the same compound, the “% Edema Inhibition” value (carragenin-induced edema; I.P., 5 mg/kg, 24 h) was 10,5%, the “% Edema Inhibition” value (carragenin-induced edema; I.P., 10 mg/kg, 3 h) was 70,6% and the “% Edema Inhibition” value (carragenin-induced edema; I.P., 10 mg/kg, 6 h) was 71,3%. The “% Edema Inhibition” value (carragenin-induced edema; I.P., 10 mg/kg, 24 h) was 15,0%, the “% Edema Inhibition” value (carragenin-induced edema; I.P., 2,5 mg/kg, 3 h) was 52,0% and the “% Edema Inhibition” value (carragenin-induced edema; I.P., 2,5 mg/kg, 6 h) was 50,0%. For the same compound, the “% Edema Inhibition” value (carragenin-induced edema; I.P., 2,5 mg/kg, 24 h) was 5,1%, the “% Edema Inhibition” value (carragenin-induced edema; OS, 5 mg/kg, 3 h) was 66,0% and the “% Edema Inhibition” value (carragenin-induced edema; OS, 5 mg/kg, 6 h) was 60,0%. For the same compound, the “% Edema Inhibition” value (carragenin-induced edema; OS, 5 mg/kg, 24 h) was 12,0%, the “% Edema Inhibition” value (carragenin-induced edema; OS, 10 mg/kg, 3 h) was 73,0% and the “% Edema Inhibition” value (carragenin-induced edema; OS, 10 mg/kg, 6 h) was 70,3%. For the same compound, the “% Edema Inhibition” value (carragenin-induced edema; OS, 10 mg/kg, 24 h) was 20,0%, the “% Edema Inhibition” value (carragenin-induced edema; OS, 2,5 mg/kg, 3 h) was 56,4% and the “% Edema Inhibition” value (carragenin-induced edema; OS, 2,5 mg/kg, 6 h) was 53,0%. The “% Edema Inhibition” value (carragenin-induced edema; OS, 2,5 mg/kg, 24 h) was 10,0%.
